Assay results as given in ChEMBL document CHEMBL1201862, “PubChem BioAssay data set” (2004).
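Following 48 hours of exposure in 96-well plates, responses at five concentrations were used to interpolate endpoints linearly. Here, GI50 denotes the concentration required for 50% inhibition of growth.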 The source made the active and inactive calls. Cut-off read from the data, not from the text of the source: active = GI50 up to about 1.1 µM and inactive = higher.

Experiments:
Experiment in all cases: DTP human tumour cell line panel, 48 h
SK-MEL-5 = system: SK-MEL-5
K562 = system: K562
EKVX = system: EKVX
M19-MEL = system: M19-MEL
M14 = system: M14
SF-295 = system: SF-295
SK-MEL-2 = system: SK-MEL-2
LOX IMVI = system: LOX IMVI
RPMI-8226 = system: RPMI-8226
A498 = system: A498
HOP-62 = system: HOP-62
SNB-78 = system: SNB-78
DMS-114 = system: DMS-114
DLD-1 = system: DLD-1
HCC 2998 = system: HCC 2998
SK-MEL-28 = system: SK-MEL-28
DMS-273 = system: DMS-273
HCT-116 = system: HCT-116
NCI-H226 = system: NCI-H226
NCI-H23 = system: NCI-H23
KM12 = system: KM12
SK-OV-3 = system: SK-OV-3
A549 = system: A549
LXFL 529 = system: LXFL 529
HT-29 = system: HT-29
UACC-257 = system: UACC-257
786-0 = system: 786-0
MOLT-4 = system: MOLT-4
ACHN = system: ACHN
OVCAR-3 = system: OVCAR-3
COLO 205 = system: COLO 205
HOP-92 = system: HOP-92
IGROV-1 = system: IGROV-1
UO-31 = system: UO-31
SF-539 = system: SF-539
U-251 = system: U-251
XF498 = system: XF498
RXF 393 = system: RXF 393
SF-268 = system: SF-268
TK-10 = system: TK-10
NCI-H460 = system: NCI-H460
SNB-75 = system: SNB-75
OVCAR-8 = system: OVCAR-8
CCRF-CEM = system: CCRF-CEM
Malme-3M = system: Malme-3M
KM-20L2 = system: KM-20L2
NCI-H522 = system: NCI-H522
HL-60 = system: HL-60
UACC-62 = system: UACC-62
SW-620 = system: SW-620
OVCAR-5 = system: OVCAR-5
SNB-19 = system: SNB-19
HCT-15 = system: HCT-15
SN12C = system: SN12C
OVCAR-4 = system: OVCAR-4
SR = system: SR

With `C/C(CC(=O)Nc1cc(C)ccc1C)=N/N=C(N)N` the GI50 (SK-MEL-5) was > 100 µM (inactive), the GI50 (K562) was > 100 µM (inactive) and the GI50 (EKVX) was > 100 µM (inactive). The GI50 (M19-MEL) was > 100 µM (inactive), the GI50 (M14) was > 100 µM (inactive) and the GI50 (SF-295) was > 100 µM (inactive). For the same molecule, the GI50 (SK-MEL-2) was > 100 µM (inactive), the GI50 (LOX IMVI) was > 100 µM (inactive) and the GI50 (RPMI-8226) was > 100 µM (inactive). For the same molecule, the GI50 (A498) was > 100 µM (inactive), the GI50 (HOP-62) was > 100 µM (inactive) and the GI50 (SNB-78) was > 100 µM (inactive). The GI50 (DMS-114) was > 100 µM (inactive), the GI50 (DLD-1) was > 100 µM (inactive) and the GI50 (HCC 2998) was > 100 µM (inactive). The GI50 (SK-MEL-28) was > 100 µM (inactive), the GI50 (DMS-273) was > 100 µM (inactive) and the GI50 (HCT-116) was > 100 µM (inactive). For the same molecule, the GI50 (NCI-H226) was > 100 µM (inactive), the GI50 (NCI-H23) was > 100 µM (inactive) and the GI50 (KM12) was > 100 µM (inactive). The GI50 (SK-OV-3) was > 100 µM (inactive), the GI50 (A549) was > 100 µM (inactive) and the GI50 (LXFL 529) was > 100 µM (inactive). The GI50 (HT-29) was > 100 µM (inactive), the GI50 (UACC-257) was > 100 µM (inactive) and the GI50 (786-0) was > 100 µM (inactive). The GI50 (MOLT-4) was > 100 µM (inactive), the GI50 (ACHN) was > 100 µM (inactive) and the GI50 (OVCAR-3) was > 100 µM (inactive). For the same molecule, the GI50 (COLO 205) was > 100 µM (inactive), the GI50 (HOP-92) was > 100 µM (inactive) and the GI50 (IGROV-1) was > 100 µM (inactive). For the same molecule, the GI50 (UO-31) was > 100 µM (inactive), the GI50 (SF-539) was > 100 µM (inactive) and the GI50 (U-251) was > 100 µM (inactive). The GI50 (XF498) was > 100 µM (inactive), the GI50 (RXF 393) was > 100 µM (inactive) and the GI50 (SF-268) was > 100 µM (inactive). For the same molecule, the GI50 (TK-10) was > 100 µM (inactive), the GI50 (NCI-H460) was > 100 µM (inactive) and the GI50 (SNB-75) was > 100 µM (inactive). The GI50 (OVCAR-8) was > 100 µM (inactive), the GI50 (CCRF-CEM) was > 100 µM (inactive) and the GI50 (Malme-3M) was > 100 µM (inactive). The GI50 (KM-20L2) was > 100 µM (inactive), the GI50 (NCI-H522) was > 100 µM (inactive) and the GI50 (HL-60) was > 100 µM (inactive). For the same molecule, the GI50 (UACC-62) was > 100 µM (inactive), the GI50 (SW-620) was > 100 µM (inactive) and the GI50 (OVCAR-5) was > 100 µM (inactive).

For `N#C/N=N/c1cc(Cl)c(/N=N/C#N)cc1Cl`, the GI50 (SNB-19) was > 100 µM (inactive), the GI50 (SK-MEL-5) was > 100 µM (inactive) and the GI50 (K562) was 27.1 µM (inactive). For the same molecule, the GI50 (EKVX) was > 100 µM (inactive), the GI50 (M19-MEL) was > 100 µM (inactive) and the GI50 (M14) was > 100 µM (inactive). The GI50 (HCT-15) was > 100 µM, the GI50 (SN12C) was > 100 µM (inactive) and the GI50 (SF-295) was > 100 µM (inactive). The GI50 (SK-MEL-2) was > 100 µM (inactive), the GI50 (LOX IMVI) was 38.6 µM (inactive) and the GI50 (A498) was > 100 µM (inactive). The GI50 (HOP-62) was > 100 µM (inactive), the GI50 (SNB-78) was > 100 µM (inactive) and the GI50 (DMS-114) was > 100 µM (inactive). The GI50 (DLD-1) was > 100 µM (inactive), the GI50 (HCC 2998) was > 100 µM (inactive) and the GI50 (SK-MEL-28) was > 100 µM (inactive). The GI50 (DMS-273) was > 100 µM (inactive), the GI50 (HCT-116) was > 100 µM (inactive) and the GI50 (NCI-H226) was > 100 µM (inactive). The GI50 (NCI-H23) was > 100 µM (inactive), the GI50 (OVCAR-4) was 47 µM (inactive) and the GI50 (KM12) was > 100 µM (inactive). The GI50 (SK-OV-3) was > 100 µM (inactive), the GI50 (A549) was > 100 µM (inactive) and the GI50 (LXFL 529) was 28.3 µM (inactive). For the same molecule, the GI50 (HT-29) was > 100 µM (inactive), the GI50 (UACC-257) was > 100 µM (inactive) and the GI50 (MOLT-4) was 40.9 µM (inactive). The GI50 (ACHN) was > 100 µM (inactive), the GI50 (OVCAR-3) was > 100 µM (inactive) and the GI50 (COLO 205) was 97.5 µM (inactive). The GI50 (HOP-92) was > 100 µM (inactive), the GI50 (IGROV-1) was > 100 µM (inactive) and the GI50 (SF-539) was > 100 µM (inactive). The GI50 (U-251) was > 100 µM (inactive), the GI50 (XF498) was > 100 µM (inactive) and the GI50 (RXF 393) was > 100 µM (inactive). For the same molecule, the GI50 (SF-268) was > 100 µM (inactive), the GI50 (TK-10) was > 100 µM (inactive) and the GI50 (NCI-H460) was > 100 µM (inactive). For the same molecule, the GI50 (SNB-75) was 51.9 µM (inactive), the GI50 (OVCAR-8) was > 100 µM (inactive) and the GI50 (SR) was 34.8 µM (inactive). The GI50 (CCRF-CEM) was 19.8 µM (inactive), the GI50 (Malme-3M) was > 100 µM (inactive) and the GI50 (KM-20L2) was > 100 µM (inactive). The GI50 (NCI-H522) was 51.3 µM (inactive), the GI50 (HL-60) was 34.7 µM (inactive) and the GI50 (UACC-62) was > 100 µM (inactive). The GI50 (SW-620) was 35.3 µM (inactive) and the GI50 (OVCAR-5) was > 100 µM (inactive).
